How the values were obtained:
[1] = tested on: Dm-LS-3 (DNA, aptamer, HFNAP: side-chain on 5' nucleobase of each coding trinucleotide, positions 19,22,25,...,61 (codon key Figure 1B)) GAAAGCAGGACTGGAGATTCGCATCGCTACTCCTCCTTGCCGTCCCACCGCCCACTGCTACCTCAGACCGAACTAGAGCTT; assay: microscale thermophoresis; settings: 5 mM KCl, 1 mM MgCl2, 1 mM CaCl2 added; HBS-P+ buffer, 25 °C
[2] = tested on: Dm-HS-8 (DNA, aptamer, HFNAP: side-chain on 5' nucleobase of each coding trinucleotide, positions 19,22,25,...,61 (codon key Figure 1B)) GAAAGCAGGACTGGAGATCGATTGCAGTTACGTCTCCCCTGCCCACCTTATTGCCATTCATAACAGACCGAACTAGAGCTT; assay: microscale thermophoresis; settings: 5 mM KCl, 1 mM MgCl2, 1 mM CaCl2 added; HBS-P+ buffer, 25 °C
[3] = tested on: Dm-CCS-3 (DNA, aptamer, HFNAP: side-chain on 5' nucleobase of each coding trinucleotide, positions 19,22,25,...,61 (codon key Figure 1B)) GAAAGCAGGACTGGAGATTTACATCCCCTCCAGTCGTGCCCCCTACCTTGCTGCTCGTCATGGCAGACCGAACTAGAGCTT; assay: microscale thermophoresis; settings: 5 mM KCl, 1 mM MgCl2, 1 mM CaCl2 added; HBS-P+ buffer, 25 °C
[4] = tested on: Dm-reference-based-random-after-selection-1 (DNA, other, HFNAP: side-chain on 5' nucleobase of each coding trinucleotide, positions 19,22,25,...,61 (codon key Figure 1B)) GAAAGCAGGACTGGAGATCCATGTCCACCGTACCGCTACTGCTACTATTTGCTTCGGTACTGTCAGACCGAACTAGAGCTT; assay: microscale thermophoresis; settings: 5 mM KCl, 1 mM MgCl2, 1 mM CaCl2 added; HBS-P+ buffer, 25 °C
[5] = tested on: Dm-HS-1 ∆ s.c. (DNA, aptamer, none (no side-chains)) GAAAGCAGGACTGGAGATCGATTCTGGTGCTGTTGATCTCCGCCATTGTGCTCCTACCCTTCACAGACCGAACTAGAGCTT; assay: microscale thermophoresis; settings: 5 mM KCl, 1 mM MgCl2, 1 mM CaCl2 added; HBS-P+ buffer, 25 °C
[6] = tested on: Dm-HS-1 CGA ∆ s.c. (DNA, aptamer, as Dm-HS-1 but no side-chain at 19: allylamine at 22,25,37; alcohol at 28,34,49; phenol at 31,46; cyclopentyl at 40; cyclopropyl at 43,58; imidazole at 52,55,61) GAAAGCAGGACTGGAGATCGATTCTGGTGCTGTTGATCTCCGCCATTGTGCTCCTACCCTTCACAGACCGAACTAGAGCTT; assay: microscale thermophoresis; settings: 5 mM KCl, 1 mM MgCl2, 1 mM CaCl2 added; HBS-P+ buffer, 25 °C
[7] = tested on: Dm-HS-1 TGG ∆ s.c. (DNA, aptamer, no side-chain at 25 (codon 3 TGG); others as HFNAP: fluorophenyl at 19; allylamine at 22, 37; alcohol at 28, 34, 49; phenol at 31, 46; cyclopentyl at 40; cyclopropyl at 43, 58; imidazole at 52, 55, 61) GAAAGCAGGACTGGAGATCGATTCTGGTGCTGTTGATCTCCGCCATTGTGCTCCTACCCTTCACAGACCGAACTAGAGCTT; assay: microscale thermophoresis; settings: 5 mM KCl, 1 mM MgCl2, 1 mM CaCl2 added to HBS-P+; HBS-P+ buffer, 25 °C
[8] = tested on: Dm-HS-1 TGT ∆ s.c. (DNA, aptamer, as Dm-HS-1 but no side-chain at 31: fluorophenyl at 19; allylamine at 22,25,37; alcohol at 28,34,49; phenol at 46; cyclopentyl at 40; cyclopropyl at 43,58; imidazole at 52,55,61) GAAAGCAGGACTGGAGATCGATTCTGGTGCTGTTGATCTCCGCCATTGTGCTCCTACCCTTCACAGACCGAACTAGAGCTT; assay: microscale thermophoresis; settings: 5 mM KCl, 1 mM MgCl2, 1 mM CaCl2 added; HBS-P+ buffer, 25 °C
[9] = tested on: Dm-HS-1 TTG ∆ s.c. (DNA, aptamer, no side-chain at 46 (codon 10 TTG); others as HFNAP: fluorophenyl at 19; allylamine at 22, 25, 37; alcohol at 28, 34, 49; phenol at 31; cyclopentyl at 40; cyclopropyl at 43, 58; imidazole at 52, 55, 61) GAAAGCAGGACTGGAGATCGATTCTGGTGCTGTTGATCTCCGCCATTGTGCTCCTACCCTTCACAGACCGAACTAGAGCTT; assay: microscale thermophoresis; settings: 5 mM KCl, 1 mM MgCl2, 1 mM CaCl2 added to HBS-P+; HBS-P+ buffer, 25 °C
[10] = tested on: Dm-HS-1 TCC ∆ s.c. (DNA, aptamer, no side-chain at 52 (codon 12 TCC); others as HFNAP: fluorophenyl at 19; allylamine at 22, 25, 37; alcohol at 28, 34, 49; phenol at 31, 46; cyclopentyl at 40; cyclopropyl at 43, 58; imidazole at 55, 61) GAAAGCAGGACTGGAGATCGATTCTGGTGCTGTTGATCTCCGCCATTGTGCTCCTACCCTTCACAGACCGAACTAGAGCTT; assay: microscale thermophoresis; settings: 5 mM KCl, 1 mM MgCl2, 1 mM CaCl2 added to HBS-P+; HBS-P+ buffer, 25 °C
[11] = tested on: Dm-HS-1 TAC ∆ s.c. (DNA, aptamer, no side-chain at 55 (codon 13 TAC); others as HFNAP: fluorophenyl at 19; allylamine at 22, 25, 37; alcohol at 28, 34, 49; phenol at 31, 46; cyclopentyl at 40; cyclopropyl at 43, 58; imidazole at 52, 61) GAAAGCAGGACTGGAGATCGATTCTGGTGCTGTTGATCTCCGCCATTGTGCTCCTACCCTTCACAGACCGAACTAGAGCTT; assay: microscale thermophoresis; settings: 5 mM KCl, 1 mM MgCl2, 1 mM CaCl2 added to HBS-P+; HBS-P+ buffer, 25 °C
[12] = tested on: Dm-HS-1 (DNA, aptamer, HFNAP, side-chains on nucleobases: fluorophenyl at 19; allylamine at 22, 25, 37; alcohol at 28, 34, 49; phenol at 31, 46; cyclopentyl at 40; cyclopropyl at 43, 58; imidazole at 52, 55, 61) GAAAGCAGGACTGGAGATCGATTCTGGTGCTGTTGATCTCCGCCATTGTGCTCCTACCCTTCACAGACCGAACTAGAGCTT; assay: gel filtration, radiolabelled ligand; settings: 140 mM NaCl, 5 mM KCl, 1 mM MgCl2, 1 mM CaCl2; 20 mM Tris-HCl pH 7.4, 0.05% Tween 20, 25 °C; [3H]-daunomycin mixed with unlabelled; control sequence subtracted

Question: How did the Kd [1] turn out when `COc1cccc2c1C(=O)c1c(O)c3c(c(O)c1C2=O)C[C@@](O)(C(C)=O)C[C@@H]3O[C@H]1C[C@H](N)[C@H](O)[C@H](C)O1` was run?
Answer: 2.23 ± 0.10 µM

Question: What about the Kd [2] of the same molecule?
Answer: 32.26 ± 8.9 nM

Question: And the Kd [3]?
Answer: 26.4 ± 6.9 nM

Question: What about the Kd [4] of the same molecule?
Answer: 63.6 ± 2.4 µM

Question: What about the “Kd ∆ side-chains” value [5] of the same molecule?
Answer: 2.61 ± 0.19 µM

Question: What about the Kd [6] of the same molecule?
Answer: 231.1 ± 23.6 nM

Question: And the Kd [7]?
Answer: 16.0 ± 2.2 nM

Question: And the Kd [8]?
Answer: 6.7 ± 1.0 nM

Question: What about the Kd [9] of the same molecule?
Answer: 32.6 ± 5.0 nM

Question: And the Kd [10]?
Answer: 29.9 ± 10.2 nM

Question: And the Kd [11]?
Answer: 21.7 ± 2.1 nM

Question: What about the Kd [12] of the same molecule?
Answer: 12.6 ± 3.5 nM
